In US20230092163A1, “COMPOUNDS AND COMPOSITIONS FOR TREATING CONDITIONS ASSOCIATED WITH STING ACTIVITY” (IFM Due, Inc., priority 2019, published 2023) one finds EC50 data, which are given here for 28 molecules.

A value given as a limit tells only on which side of the number the result lay.

Chain of STING (Q86WV6 whole entry R71H/G230A/H232R/R293Q): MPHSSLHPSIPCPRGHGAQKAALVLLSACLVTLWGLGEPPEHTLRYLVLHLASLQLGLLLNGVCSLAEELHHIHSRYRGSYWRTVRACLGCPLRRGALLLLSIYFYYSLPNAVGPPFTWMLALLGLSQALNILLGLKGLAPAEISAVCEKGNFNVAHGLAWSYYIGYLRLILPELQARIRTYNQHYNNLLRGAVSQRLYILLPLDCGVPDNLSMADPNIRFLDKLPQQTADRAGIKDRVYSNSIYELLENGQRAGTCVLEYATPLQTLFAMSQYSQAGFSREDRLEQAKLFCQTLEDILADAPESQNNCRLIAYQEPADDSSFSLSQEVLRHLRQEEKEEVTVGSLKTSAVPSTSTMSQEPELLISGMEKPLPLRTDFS

In the first assay the target is STING (Homo sapiens, UniProt Q86WV6, G230A/H232R/R293Q/R71H). Description: STING reporter assay: THP1-Dual KO-IFNAR2 cells stimulated with 2′3′cGAMP, luciferase reporter activity. It counts as cell-based. Particulars: 15 μM 2′3′cGAMP, 24h, class symbols. The method in brief:
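THP1-Dual KO-IFNAR2 cells (2×10E6 cells/mL) treated with compounds at 0.0017-100 μM, then stimulated with 2′3′cGAMP (15 μM final) delivered by Lipofectamine 2000; 24 h at 37° C. Supernatant luciferase read by QUANTI-Luc Plus luminescence; EC50 from dose-response.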
One may read the EC50 as the concentration at which the effect is half-maximal. Consider `CC(=O)n1cc(F)c2ccc(NC(=O)Nc3ccc(C(F)(F)F)cc3)cc21` [Compound 534, 1-(1-acetyl-3-fluoro-1H-indol-6-yl)-3-(4-(trifluoromethyl)phenyl)urea], for which the 50% effective concentration (EC50) fell in the range of 0.2 to 1 µM. The same measure, in the same setting: under `O=C(NCCSCc1c(Cl)cccc1Cl)Nc1ccc2cc[nH]c2c1` [Compound 204] stands 1 to 5 µM. The same measure, in the same setting: under `O=C(NCCc1c[nH]c2cc(OC(F)(F)F)ccc12)Nc1ccc2cc[nH]c2c1` [Compound 173] stands 0.2 to 1 µM; under `COc1cc(NC(=O)Nc2ccc(C(F)(F)F)cc2)cc2[nH]ccc12` [Compound 504], 0.2 to 1 µM; under `Cc1cc(NC(=O)Nc2ccc(C(F)(F)F)cc2)cc2[nH]cc(C#N)c12` [Compound 533], 1 to 5 µM. `O=C(Nc1ccc(C(F)(F)F)cc1)Nc1cc(C(=O)OC2CCCC2)c2cc[nH]c2c1` [Compound 602, cyclopentyl 6-(3-(4-(trifluoromethyl)phenyl)ureido)-1H-indole-4-carboxylate] gave an EC50 of 1 to 5 µM.

Turning to `CCCCc1cccc(NC(=O)Nc2ccc3cc[nH]c3c2)c1` [Compound 270], the EC50 fell in the range of 0.04 to 0.2 µM. Regarding `FC(F)(F)c1ccc2c(Cl)cc(Nc3ccc4cc[nH]c4c3)nc2c1` [Compound 562, 4-chloro-N-(1H-indol-6-yl)-7-(trifluoromethyl)quinolin-2-amine], the EC50 lay in the range of 5 to 100 µM.

Take `CN(C(=O)Nc1ccc(C(F)(F)F)cc1)c1ccc2cc[nH]c2c1` [Compound 264]: the EC50 fell in the range of 5 to 100 µM. As to `CCCCc1ccc(Nc2c(Nc3ccc4c(c3)CC=N4)c(=O)c2=O)cc1` [Compound 618], the concentration for a half-maximal effect (EC50) was in the range of 1 to 5 µM. The molecule `O=C(Nc1cnc(N2CC(F)(F)C2)c(F)c1)Nc1ccc2c(F)c[nH]c2c1` [Compound 531] gave a half-maximal effective concentration (EC50) of 0.2 to 1 µM.

Turning to `COc1nc(Nc2ccc3cc[nH]c3c2)ccc1F` [Compound 391, N-(5-fluoro-6-methoxypyridin-2-yl)-1H-indol-6-amine], the concentration for a half-maximal effect (EC50) was in the range of 5 to 100 µM. The molecule `CCCCC1CCC(NC(=O)Nc2ccc3cc(Cl)[nH]c3c2)CC1` (stereo not shown) [Compound 260] gave a concentration giving a half-maximal response (EC50) of 5 to 100 µM. With `O=C(Nc1cccc(C(F)(F)F)c1)Nc1ccc2c(F)c[nH]c2c1` [Compound 523], the EC50 is 1 to 5 µM. On the same count and under the same terms, under `N#Cc1cc(Nc2ccc3cc[nH]c3c2)cc(Nc2ccc3cc[nH]c3c2)n1` [Compound 582, 4,6-bis[(1H-indol-6-yl)amino]pyridine-2-carbonitrile] stands 0.2 to 1 µM. Take `Cc1cc2cc[nH]c2cc1Nc1ccc2ccc(C(F)(F)F)cc2n1` [Compound 580, N-(5-methyl-1H-indol-6-yl)-7-(trifluoromethyl)quinolin-2-amine]: the 50% effective concentration (EC50) lay within 5 to 100 µM.

Regarding `O=C(Nc1ccc(C(F)(F)F)cc1)Nc1cc(-c2cn[nH]c2)c2cc[nH]c2c1` [Compound 167], the EC50 was 1 to 5 µM. The same measure, in the same setting: the value for `CC(NC(=O)Nc1cc(Cl)c2cc[nH]c2c1)c1cc(Cl)cc(C(F)(F)F)c1` (stereo not shown) [Compound 537] was 0.2 to 1 µM.

Still in this assay, the particulars now being: 15 μM 2′3′cGAMP, 24h, numeric bounds.
As for `O=C(NCCc1c[nH]c2cc(OC(F)(F)F)ccc12)Nc1ccc2[nH]ccc2c1` [Compound 314], the 50% effective concentration (EC50) is more than 30 µM. In turn, `Cc1cccc(CNC(=O)Nc2ccc3[nH]ccc3c2)c1` [Compound 340] yielded an EC50 of more than 30 µM. The same measure, in the same setting: the value for `O=C(NCCCc1cncc(C(F)(F)F)c1)Nc1ccc2[nH]ccc2c1` [Compound 298] was more than 30 µM. Turning to `N#Cc1ccc(CNC(=O)Nc2ccc3cc[nH]c3c2)c(C(F)(F)F)c1` [Compound 159], the concentration for a half-maximal effect (EC50) was more than 30 µM. Same read-out and setting: the value for `Cn1cc(NC(=O)Nc2ccc3cc[nH]c3c2)cn1` [Compound 189] was more than 30 µM; that for `CNC(=O)c1c[nH]c2cc(NC(=O)Nc3ccc(C(F)(F)F)cc3)ccc12` [Compound 541] was more than 30 µM. The molecule `O=C(Nc1ccc2[nH]ccc2c1)NC1CCc2ccc(C(F)(F)F)cc21` (stereo not shown) [Compound 317] registered a concentration for a half-maximal effect (EC50) of more than 30 µM.

Regarding `O=C(NCc1cnccn1)Nc1ccc2cc[nH]c2c1` [Compound 219], the EC50 was more than 30 µM. In the case of `Cc1ccccc1NC(=O)Nc1ccc2[nH]ccc2c1` [Compound 365], the EC50 is more than 30 µM. The molecule `COC(=O)c1ccc(Nc2ccc3cc[nH]c3c2)nc1OC` [Compound 597] showed a 50% effective concentration (EC50) of more than 30 µM.
